The test system of the series is Hela cells. As to the kind of experiment: Cell viability by WST assay (WST-8, Cell Counting Kit-8). Format: cell-based. The settings on record: 10 ul of radical DX, 20 ug/ml of distilled water. How it is done:
The same liposomes were exposed to ultrasound for 5 minutes at different amplitudes (i.e., 50%, 75%, and 100% of the maximum amplitude) at a frequency of 20 kHz. 10 ul of the sonicated liposomes (DX concentration of 20 ug/ml) was immediately added to Hela cells as described above, and then, incubated for 30 minutes. As a control group, a group treated with 10 ul of PBS, a group treated with 10 ul of radical DX (20 ug/ml of distilled water), and a group wherein HeLa cells are incubated at a temperature of 42° C. were all included. The cell viability thereof was obtained by counting viable cells using a WST assay [2-(2-methoxy-4-nitrophenyl)-3-(4-nitrophenyl)-5-(2,4-disulfophenyl)-2H-tetrazolium, monosodium salts] (WST-8, Cell Counting Kit-8, Dojindo, Japan).

As for `COc1cccc2c1C(=O)c1c(O)c3c(c(O)c1C2=O)C[C@@](O)(C(=O)CO)C[C@@H]3O[C@H]1C[C@H](N)[C@H](O)[C@H](C)O1` [radical Dx, Doxorubicin], the “cell viability, compared with the sonicated liposomes (about 15%)” value was “similar”.
